Experimental findings from US20130123276A1, “USE OF TELAPREVIR AND RELATED COMPOUNDS IN ATHEROSCLEROSIS, HEART FAILURE, RENAL DISEASES, LIVER DISEASES OR INFLAMMATORY DISEASES” (priority 2011, published 2013) are described below.

The target in this test is T1, Recombinant human cathepsin A (Homo sapiens, UniProt P10619).
T1 construct: Recombinant human cathepsin A (residues 29-480, with a C-terminal 10-His tag); 10-His (C); purchased R&D Systems 1049-SE
T1 sequence (P10619 29-326 limits assumed): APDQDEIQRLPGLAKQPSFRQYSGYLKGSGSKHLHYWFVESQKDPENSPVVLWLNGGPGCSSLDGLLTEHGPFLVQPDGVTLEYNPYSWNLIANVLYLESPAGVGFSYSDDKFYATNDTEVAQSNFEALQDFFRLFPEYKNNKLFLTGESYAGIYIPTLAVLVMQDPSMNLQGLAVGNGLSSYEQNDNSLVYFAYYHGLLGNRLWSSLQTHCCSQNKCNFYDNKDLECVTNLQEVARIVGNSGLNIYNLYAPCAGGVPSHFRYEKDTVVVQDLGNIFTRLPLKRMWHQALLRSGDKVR
T1 sequence (P10619 327-480 limits assumed): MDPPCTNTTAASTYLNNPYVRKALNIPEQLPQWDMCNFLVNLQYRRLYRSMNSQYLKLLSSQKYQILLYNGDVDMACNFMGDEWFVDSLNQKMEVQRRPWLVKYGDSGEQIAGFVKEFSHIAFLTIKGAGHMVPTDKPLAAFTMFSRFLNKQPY
The test is described as follows: Cathepsin A inhibitory activity. Type of test: biochemical. Particulars: activated recombinant human cathepsin A, Bodipy FL-labeled bradykinin substrate, pH 5.5, microfluidic capillary electrophoresis. The procedure: Recombinant human cathepsin A (residues 29-480, with a C-terminal 10-His tag; R&D Systems, # 1049-SE) was proteolytically activated with recombinant human cathepsin L (R&D Systems, # 952-CY). Briefly, cathepsin A was incubated at 10 μg/ml with cathepsin L at 1 μg/ml in activation buffer (25 mM 2-(morpholin-4-yl)-ethanesulfonic acid (MES), pH 6.0, containing 5 mM dithiothreitol (DTT)) for 15 min at 37° C. Cathepsin L activity was then stopped by the addition of the cysteine protease inhibitor E-64 (N-(trans-epoxysuccinyl)-L-leucine-4-guanidinobutylamide; Sigma-Aldrich, # E3132; dissolved in activation buffer/DMSO) to a final concentration of 10 μM.
The activated cathepsin A was diluted in assay buffer (25 mM MES, pH 5.5, containing 5 mM DTT) and mixed with the test compound (dissolved in assay buffer containing (v/v) 3% DMSO) or, in the control experiments, with the vehicle in a multiple assay plate. […]
Uncleaved substrate and product were then separated by a microfluidic capillary electrophoresis on a LabChip® 3000 Drug Discovery System (12-Sipper-Chip; Caliper Life Sciences) and quantified by determination of the respective peak areas. Substrate turnover was calculated by dividing product peak area by the sum of substrate and product peak areas, and the enzyme activity and the inhibitory effect of the test compound thus quantified. […]

Molecules are shown by their SMILES.

As to `CCC[C@H](NC(=O)[C@@H]1[C@H]2CCC[C@H]2CN1C(=O)[C@@H](NC(=O)[C@@H](NC(=O)c1cnccn1)C1CCCCC1)C(C)(C)C)C(=O)C(=O)NC1CC1` [Telaprevir, (1 S,3aR,6aS)-2-[(2S)-2-[[(2S)-2-Cyclohexyl-2-(pyrazine-2-carbonylamino)acetyl]amino]-3,3-dimethylbutanoyl]-N-[(3S)-1-(cyclopropylamino)-1,2-dioxohexan-3-yl]-3,3a,4,5,6,6a-hexahydro-1H-cyclopenta[c]pyrrole-1-carboxamide], the IC50 (commonly the concentration that inhibits the measured activity by half) was 0.1 µM.
